According to patent publication US9381224B2, “Plant based formulation for the prevention and management of metabolic syndrome and cardiovascular disease mortality risk” (priority 2014, dated 2016):

Test system: Metabolic Syndrome cases
Experiment: Clinical study in diagnosed Metabolic Syndrome cases
Assay type: in vivo, human
Description: The study population consisted of 128 diagnosed Metabolic Syndrome cases (76 Men and 52 Women), aged 52.81±9.68 years at study entry. The cases were diagnosed as per criteria given by WHO for classification and diagnosis of Metabolic Syndrome.
After preliminary screening the subjects showing association with 3 or more than 3 above factors were selected. The clinical trial was conducted in three groups—
44 cases were treated with Ayurvedic formulation.
Body mass index (BMI) was calculated following formula {weight (kg)÷ height (m2)} and anthropometer was used for circumference measurement. Lipid profile including triglyceride was estimated by standard laboratory kits. TNF-[…], interleukin-6 was measured by ELISA kit, adiponectin by radioimmunoassay kit. CRP by kit for quantitative nephelometric determination of CRP in human serum or plasma by Turbox/Turbox analyzer and ELISA activity assay kit for Leptin level. Subjects suffering from any other disease known to affect the study parameters were excluded from the series. Upon recruitment all subjects gave informed written consent.

In the case of `CCCCCCCCCCC[C@@H](C[C@@H]1OC(=O)[C@H]1CCCCCC)OC(=O)[C@H](CC(C)C)NC=O` [Conventional drug, Orlistat], the HbA1c (After 3 months) is reported as 5.93%, the PAI-1 (After 3 months) is reported as 37.42 ng/mL and the tPA-1 (After 3 months) is reported as 19.45 ng/mL. The Adiponectin (After 6 months) was 7.39 µg/mL, the “Apolipo (B)” value (After 6 months) was 152.87 mg/dL and the Diastolic blood pressure (After 6 months) was 86.24 mmHg. For the same compound, the Endothelin (After 6 months) was 988.73 pg/mL, the Fasting blood glucose (After 6 months) was 108.42 mg/dL and the HDL-c (After 6 months) was 43.02 mg/dL. The HbA1c (After 6 months) was 5.24%, the Interleukin-6 (After 6 months) was 2.12 pg/mL and the LDL-c (After 6 months) was 114.32 mg/dL. For the same compound, the Leptin (After 6 months) was 25.73 µg/L, the PAI-1 (After 6 months) was 32.98 ng/mL and the Postprandial blood glucose (After 6 months) was 179.45 mg/dL. The Systolic blood pressure (After 6 months) was 124.87 mmHg, the TNF-α (After 6 months) was 488.90 pg/mL and the Total cholesterol (After 6 months) was 216.92 mg/dL. For the same compound, the Triglycerides (After 6 months) was 287.93 mg/dL, the “hs CRP” value (After 6 months) was 3.64 mg/L and the tPA-1 (After 6 months) was 18.46 ng/mL. It also gave a CD36 (Gender F, After 3 months) of 156.42 ng/mL, a CD36 (Gender F, After 6 months) of 155.90 ng/mL and a CD36 (Gender F, Initial) of 142.90 ng/mL. For the same compound, the CD36 (Gender M, After 3 months) was 173.64 ng/mL, the CD36 (Gender M, After 6 months) was 196.22 ng/mL and the Adiponectin (Initial) was 6.92 µg/mL. The “Apolipo (B)” value (Initial) was 188.73 mg/dL, the Diastolic blood pressure (Initial) was 89.04 mmHg and the Endothelin (Initial) was 1286.93 pg/mL. For the same compound, the Fasting blood glucose (Initial) was 136.42 mg/dL, the HDL-c (Initial) was 41.62 mg/dL and the HbA1c (Initial) was 6.82%. It also gave an Interleukin-6 (Initial) of 2.25 pg/mL, an LDL-c (Initial) of 139.72 mg/dL and a Leptin (Initial) of 36.42 µg/L. For the same compound, the PAI-1 (Initial) was 40.12 ng/mL, the Postprandial blood glucose (Initial) was 231.68 mg/dL and the Systolic blood pressure (Initial) was 136.68 mmHg. For the same compound, the TNF-α (Initial) was 622.45 pg/mL, the Total cholesterol (Initial) was 247.90 mg/dL and the Triglycerides (Initial) was 354.86 mg/dL. The “hs CRP” value (Initial) was 4.93 mg/L and the tPA-1 (Initial) was 21.23 ng/mL.
